# Measurements: patent US10087242B2 (INSTITUT PASTEUR, priority 2007, dated 2018)
# How the values were obtained:
# Type in all cases: binding, mouse
# [1] = system: mIgG C7-37; experiment: inhibition ELISA: oligosaccharide inhibits fixation of mIgG C7-37 on LPS 3a; details: concentration of oligosaccharide giving 50% inhibition of fixation of the mAb on LPS 3a (S. flexneri 3a)
# Experimental: (§1) The oligosaccharide determinants recognized by the four mAbs obtained were characterized by measuring, by inhibition ELISA, the interaction of the various oligosaccharides synthesized with these mAbs.
# (§2) 1) First, a standard curve OD=f(concentration of the mAb) was established for each antibody.
# (§3) For this, purified LPS from S. flexneri 3a was fixed in the wells of ELISA plates (96-well plate), at a concentration of 25 μg/ml in a carbonate buffer pH 9.6, at 4° C., overnight.
# (§4) After washing the wells with a solution of PBS/ Tween 20 (0.05%) 1% and a stage of saturation with PBS/BSA 1% for 30 minutes at 4° C., various concentrations of each mAb were incubated for 30 minutes at 4° C. After a washing stage, a secondary antibody coupled to alkaline phosphatase and specific to the mouse IgGs or IgMs was added at a dilution of 1/5000 (Sigma-Aldrich) for 1 h at 37° C. After washing, the enzymatic reaction was carried out with the specific substrate of alkaline phosphatase (12 mg of p-nitrophenylphosphate in 1.2 ml of Tris-HCl buffer 1M (pH 8.8) and 10.8 ml of 5M NaCl). Once the color reaction had developed, the plates were read at 405 nm (Dynatech MR 4000 plate reader). The standard curve OD =f(Ab concentration) was refined with the equation Y=aX2+bX+c, where Y corresponds to the OD and X to the antibody concentration. A correlation factor (r2) of 0.99 was generally obtained.
# (§5) 2) The concentration of oligosaccharide capable of inhibiting 50% of the fixation of the mAb on LPS 3a was then determined as follows.
# (§6) Each mAb was used at a given concentration, defined as the first concentration tested giving a maximum OD on the standard curve (the first point at the start of the plateau of the curve). Various concentrations of each of the oligosaccharides to be tested were then incubated separately with the mAb at constant concentration, overnight at 4° C., in 1% PBS-BSA buffer. Measurement of the free antibody concentration was carried out as stated above, after incubation of the mAb/oligosaccharide mixtures at 4° C. for 30 minutes on plates covered with LPS 3a and using the standard curve obtained in parallel on the same plate. For each mAb and each oligosaccharide, a value called IC50 was then calculated, corresponding to the concentration of oligosaccharide permitting 50% inhibition of the fixation of the mAb on LPS 3a.
# [2] = system: IgM (G 19-2); experiment: inhibition ELISA: oligosaccharide inhibits fixation of IgM G19-2 on LPS 3a; details: for IC50: concentration of oligosaccharide giving 50% inhibition of fixation of the mAb on LPS 3a (S. flexneri 3a), inhibition ELISA; for recognition by the mIgM antibody (and by the mIgGs): summary in words of tables 1 and 2, interaction weaker than with the mIgGs
# Experimental: Protocol 2) Ten Balb/C mice and four BP2 mice were immunized by i.p. injection with virulent live bacteria of the strain S. flexneri 3a, every three weeks, using 2×10^6 bacteria for the first 2 immunizations and 5×10^6 for the next 4. As the anti-LPS 3a antibody response was too weak for performing cellular fusion, an additional series of 4 injections was carried out. Two mAbs of type IgM, G19-2 and L18-9, were obtained.
# as §1, §2, §3, §4, §5, §6
# [3] = system: mIgG G7-12; experiment: inhibition ELISA: oligosaccharide inhibits fixation of mIgG G7-12 on LPS 3a; details: concentration of oligosaccharide giving 50% inhibition of fixation of the mAb on LPS 3a (S. flexneri 3a)
# Experimental: as §1, §2, §3, §4, §5, §6
Compound,IC50 [1] [µM],IC50 [2] [µM],IC50 [3] [µM],recognition by the mIgM antibody (and by the mIgGs) [2]
CCCO[C@@H]1OC(C)[C@H](O)[C@H](O[C@H]2O[C@@H](CO)[C@@H](O)C(O)C2O)C1O[C@@H]1OC(CO)[C@@H](O)C(O)[C@@H]1NC(C)=O (stereo partly shown),> 5000,> 2500,> 2500,–
"CCCO[C@@H]1OC(C)[C@H](O)C(O)C1O[C@@H]1OC(C)[C@H](O)C(O[C@H]2OC(CO)[C@@H](O)C(O)C2O)C1O[C@@H]1OC(CO)[C@@H](O)C(O[C@@H]2OC(C)[C@H](O)C(O[C@@H]3OC(C)[C@H](O)C(O)C3O)C2OC(C)=O)C1NC(C)=O (stereo partly drawn) [BC(2-OAc)D(E)AB-OPr, Propyl α-L-rhamnopyranosyl-(1→3)-(2-O-acetyl-α-L-rhamnopyranosyl)-(1→3)-(2-acetamido-2-deoxy-β-D-glucopyranosyl)-(1→2)-[α-D-glucopyranosyl-(1→3)]-α-L-rhamnopyranosyl-(1→2)-α-L-rhamnopyranoside]",230,2200,205,recognized
"CCCO[C@@H]1OC(C)[C@H](O)C(O[C@H]2OC(CO)[C@@H](O)C(O)C2O)C1O[C@@H]1OC(CO)[C@@H](O)C(O[C@@H]2OC(C)[C@H](O)C(O[C@@H]3OC(C)[C@H](O)C(O)C3O)C2O)C1NC(C)=O (stereo partly drawn) [BCDEA-Opr, Propyl α-L-rhamnopyranosyl-(1→3)-α-L-rhamnopyranosyl-(1→3)-(2-acetamido-2-deoxy-β-D-glucopyranosyl)-(1→2)-[α-D-glucopyranosyl-(1→3)]-α-L-rhamnopyranoside]",> 1000,> 2500,> 2500,–
"CCCO[C@@H]1OC(C)[C@H](O)C(O[C@H]2OC(CO)[C@@H](O)C(O)C2O)C1O[C@@H]1OC(CO)[C@@H](O)C(O[C@@H]2OC(C)[C@H](O)C(O[C@@H]3OC(C)[C@H](O)C(O)C3O)C2OC(C)=O)C1NC(C)=O (stereo partly drawn) [BCDEA-Opr-Oac, Propyl α-L-rhamnopyranosyl-(1→3)-(2-O-acetyl-α-L-rhamnopyranosyl)-(1→3)-(2-acetamido-2-deoxy-β-D-glucopyranosyl)-(1→2)-[α-D-glucopyranosyl-(1→3)]-α-L-rhamnopyranoside]",195,1980,175,recognized
CCCO[C@@H]1OC(C)[C@H](O)C(O)C1O[C@@H]1OC(C)[C@H](O)C(O[C@H]2OC(CO)[C@@H](O)C(O)C2O)C1O[C@@H]1OC(CO)[C@@H](O)C(O[C@@H]2OC(C)[C@H](O)C(O[C@@H]3OC(C)[C@H](O)C(O)C3O)C2O)C1NC(C)=O (stereo partly shown) [BCDEAB-Opr],> 5000,> 2500,> 2500,–
"CCCO[C@@H]1OC(C)[C@H](O)C(O)C1O[C@@H]1OC(C)[C@H](O)C(O[C@H]2OC(CO)[C@@H](O)C(O)C2O)C1O[C@@H]1OC(CO)[C@@H](O)C(O[C@@H]2OC(C)[C@H](O)C(O)C2OC(C)=O)C1NC(C)=O (stereo partly drawn) [C(2,3-OAc)D(E)AB-OPr, Propyl (2-O-acetyl-α-L-rhamnopyranosyl)-(1→3)-(2-acetamido-2-deoxy-β-D-glucopyranosyl)-(1→2)-[α-D-glucopyranosyl-(1→3)]-α-L-rhamnopyranosyl-(1→2)-α-L-rhamnoyranoside]",> 5000,> 2500,> 2500,–
"CCCO[C@@H]1O[C@@H](C)[C@H](O)[C@@H](O[C@@H]2O[C@@H](C)[C@H](O)[C@@H](O)[C@H]2O[C@@H]2O[C@@H](C)[C@H](O)[C@@H](O[C@H]3O[C@H](CO)[C@@H](O)[C@H](O)[C@H]3O)[C@H]2O[C@@H]2O[C@H](CO)[C@@H](O)[C@H](O)[C@H]2NC(C)=O)[C@H]1OC(C)=O [DEABC(2-OAc)-OPr, Propyl (2-acetamido-2-deoxy-β-D-glucopyranosyl)-(1→2)-[α-D-glucopyranosyl-(1→3)]-α-L-rhamnopyranosyl-(1→2)-α-L-rhamnopyranosyl-(1→3)-2-O-acetyl-α-rhamnopyranoside]",–,> 2500,> 2500,–
